Data taken from ChEMBL document CHEMBL4680314, “Discovery of potent glycogen synthase kinase 3/cholinesterase inhibitors with neuroprotection as potential therapeutic agent for Alzheimer's disease” (Bioorg Med Chem, 2021).

Biological target: Acetylcholinesterase (Homo sapiens, UniProt P22303)
Assay: Inhibition of human recombinant AChE expressed in HEK293 cells using acetylthiocholine iodide as substrate incubated for 10 mins by Ellman's method
Type: cell-based
Conditions: not given

Sequence of Acetylcholinesterase (P22303 whole entry): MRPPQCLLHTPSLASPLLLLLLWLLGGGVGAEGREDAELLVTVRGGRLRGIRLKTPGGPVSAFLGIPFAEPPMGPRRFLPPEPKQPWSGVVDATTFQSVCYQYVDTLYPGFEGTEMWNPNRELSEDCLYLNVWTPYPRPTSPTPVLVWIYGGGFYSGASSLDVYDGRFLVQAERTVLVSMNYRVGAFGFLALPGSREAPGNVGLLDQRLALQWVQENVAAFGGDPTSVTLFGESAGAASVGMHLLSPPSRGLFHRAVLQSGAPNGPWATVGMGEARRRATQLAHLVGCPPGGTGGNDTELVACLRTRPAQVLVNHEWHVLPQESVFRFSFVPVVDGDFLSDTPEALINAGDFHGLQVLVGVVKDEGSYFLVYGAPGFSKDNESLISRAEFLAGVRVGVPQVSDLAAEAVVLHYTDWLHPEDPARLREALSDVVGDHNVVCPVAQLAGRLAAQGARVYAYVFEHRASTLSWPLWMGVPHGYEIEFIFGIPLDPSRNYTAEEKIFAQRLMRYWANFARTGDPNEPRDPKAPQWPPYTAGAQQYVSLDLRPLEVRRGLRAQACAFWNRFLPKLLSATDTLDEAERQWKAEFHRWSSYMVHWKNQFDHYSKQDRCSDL

First: NC(=O)c1sc(-c2ccnc(NC(=O)C3CC3)c2)nc1OCCC1CCN(Cc2ccc(F)cc2)CC1
Second: NC(=O)c1sc(-c2ccnc(NC(=O)C3CC3)c2)nc1OCCC1CCN(Cc2c(F)cccc2F)CC1
The IC50 of the first is 4.3-fold lower: 4.5 µM for the first, 19.5 µM for the second. The first is the more potent here.

First: CNC(=O)c1sc(-c2ccnc(NC(=O)C3CC3)c2)nc1OCC1CCN(Cc2cccc([N+](=O)[O-])c2)CC1
Second: CNC(=O)c1sc(-c2ccnc(NC(=O)C3CC3)c2)nc1OCC1CCN(Cc2ccc(Cl)cc2)CC1
The IC50 of the first is 14-fold lower: 6 µM for the first, 82 µM for the second. The first is the more potent here.

Compared with CNC(=O)c1sc(-c2ccnc(NC(=O)C3CC3)c2)nc1OC1CCN(Cc2ccccc2)CC1, CNC(=O)c1sc(-c2ccnc(NC(=O)C3CC3)c2)nc1OCC1CCN(Cc2ccc(Br)cc2)CC1 is higher in IC50: 73 µM for the first, > 1000 µM for the second.

Tested on: not listed separately
Assay: in vitro
Conditions: PAMPA
Description: Effective permeability of compound in PBS/EtOH buffer (7:3) at 25 ug/ml incubated for 18 hrs by PAMPA-BBB assay

In order of rising Papp at 18 h, 25 ug/ml:
1. NC(=O)c1sc(-c2ccnc(NC(=O)C3CC3)c2)nc1OCCC1CCN(Cc2c(F)cccc2F)CC1  6.8 ×10⁻⁶ cm/s
2. NC(=O)c1sc(-c2ccnc(NC(=O)C3CC3)c2)nc1OCCC1CCN(Cc2ccc(F)cc2)CC1  8.2 ×10⁻⁶ cm/s

Biological target: Cholinesterase (Homo sapiens, UniProt P06276)
Assay: Inhibition of human BChE using butyrylthiocholineiodide as substrate incubated for 10 mins by Ellman's method
Conditions: not given

Sequence of Cholinesterase (P06276 whole entry): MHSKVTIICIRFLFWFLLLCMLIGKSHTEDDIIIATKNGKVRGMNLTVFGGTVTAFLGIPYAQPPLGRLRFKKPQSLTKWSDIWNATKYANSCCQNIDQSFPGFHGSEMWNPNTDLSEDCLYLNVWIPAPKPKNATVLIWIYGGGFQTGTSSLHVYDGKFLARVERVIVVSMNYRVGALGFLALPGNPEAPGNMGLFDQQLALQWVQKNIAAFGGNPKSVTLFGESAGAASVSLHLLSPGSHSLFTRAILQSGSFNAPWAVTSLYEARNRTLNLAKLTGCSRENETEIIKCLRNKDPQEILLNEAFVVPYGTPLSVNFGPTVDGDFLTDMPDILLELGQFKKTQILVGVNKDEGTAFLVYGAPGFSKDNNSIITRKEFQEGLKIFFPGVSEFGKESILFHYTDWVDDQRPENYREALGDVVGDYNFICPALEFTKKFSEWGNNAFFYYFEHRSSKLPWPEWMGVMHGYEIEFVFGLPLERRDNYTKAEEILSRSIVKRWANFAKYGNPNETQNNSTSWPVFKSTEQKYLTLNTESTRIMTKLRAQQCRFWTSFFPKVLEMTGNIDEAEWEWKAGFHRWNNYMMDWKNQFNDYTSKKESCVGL

In order of falling IC50:
1. CNC(=O)c1sc(-c2ccnc(NC(=O)C3CC3)c2)nc1OCC1CCN(Cc2ccc(Cl)cc2)CC1  297 µM
2. CNC(=O)c1sc(-c2ccnc(NC(=O)C3CC3)c2)nc1OCC1CCN(Cc2ccc(Br)cc2)CC1  68 µM
3. CNC(=O)c1sc(-c2ccnc(NC(=O)C3CC3)c2)nc1OC1CCN(Cc2ccccc2)CC1  31 µM
4. NC(=O)c1sc(-c2ccnc(NC(=O)C3CC3)c2)nc1OCCC1CCN(Cc2ccc(F)cc2)CC1  17.6 µM
5. CNC(=O)c1sc(-c2ccnc(NC(=O)C3CC3)c2)nc1OCC1CCN(Cc2cccc([N+](=O)[O-])c2)CC1  9 µM
6. NC(=O)c1sc(-c2ccnc(NC(=O)C3CC3)c2)nc1OCCC1CCN(Cc2c(F)cccc2F)CC1  1.9 µM

Biological target: Glycogen synthase kinase-3 beta (Homo sapiens, UniProt P49841)
Assay: biochemical
Conditions: not given

Sequence of Glycogen synthase kinase-3 beta (P49841 whole entry): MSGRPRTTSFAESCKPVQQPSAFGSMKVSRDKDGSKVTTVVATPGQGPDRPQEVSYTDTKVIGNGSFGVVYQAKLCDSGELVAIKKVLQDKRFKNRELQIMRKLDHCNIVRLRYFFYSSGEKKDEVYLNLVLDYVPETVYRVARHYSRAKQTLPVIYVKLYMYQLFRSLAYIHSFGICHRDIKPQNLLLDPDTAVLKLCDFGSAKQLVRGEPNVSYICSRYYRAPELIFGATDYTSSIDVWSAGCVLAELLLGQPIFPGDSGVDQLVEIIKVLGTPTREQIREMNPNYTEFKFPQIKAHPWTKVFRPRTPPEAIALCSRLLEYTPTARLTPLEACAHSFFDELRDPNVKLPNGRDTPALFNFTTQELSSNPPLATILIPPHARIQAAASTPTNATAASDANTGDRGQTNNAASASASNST

In order of falling IC50:
1. CNC(=O)c1sc(-c2ccnc(NC(=O)C3CC3)c2)nc1OCC1CCN(Cc2ccc(Cl)cc2)CC1  0.045 µM
2. NC(=O)c1sc(-c2ccnc(NC(=O)C3CC3)c2)nc1OCCC1CCN(Cc2ccc(F)cc2)CC1  0.038 µM
3. CNC(=O)c1sc(-c2ccnc(NC(=O)C3CC3)c2)nc1OCC1CCN(Cc2ccc(Br)cc2)CC1  0.026 µM
4. CNC(=O)c1sc(-c2ccnc(NC(=O)C3CC3)c2)nc1OC1CCN(Cc2ccccc2)CC1  0.007 µM
5. NC(=O)c1sc(-c2ccnc(NC(=O)C3CC3)c2)nc1OCCC1CCN(Cc2c(F)cccc2F)CC1  0.005 µM
6. CNC(=O)c1sc(-c2ccnc(NC(=O)C3CC3)c2)nc1OCC1CCN(Cc2cccc([N+](=O)[O-])c2)CC1  0.005 µM
